Data as given in paper PMC7352342, “Inhibition of Patched Drug Efflux Increases Vemurafenib Effectiveness against Resistant Braf^V600E Melanoma” (Cancers, 2020).

Columns and labels:
[1] = molecular target: T1, human Smoothened (Homo sapiens, UniProt Q99835); assay: Microscale thermophoresis on membranes from yeast expressing human Smoothened; format: binding; details: MST; sPAH 15 nM to 250 µM
T1 construct: made in house; host or cells: yeast (membrane preparation)
Protocol: Microscale thermophoresis (MST) is a biophysical technique that measures the strength of the interaction between two molecules by detecting a variation in the fluorescence signal of a fluorescently labeled target as a result of an IR-laser induced temperature change. The range of the variation in the fluorescence signal correlates with the binding of a ligand to the fluorescent target.
Membranes from yeast expressing human Ptch1 or human Smoothened were incubated at 30 µg/mL with 20 nM of the fluorescent dye NT-647 2nd gen (NanoTemper Technologies, München, Germany) to label the His-tag present at the c-terminus of both proteins. […] The fluorescence within the capillary is excited and detected through the same objective. […] The MST response of fluorescent proteins within the temperature gradient is detected. After activation of the IR laser, a decrease in fluorescence is observed which corresponds to temperature-related intensity change (TRIC) triggered by the fast temperature change and thermophoretic movement of the fluorescent proteins out of the heated sample volume. […] For analysis, the change in MST signal is expressed as the change in the normalized fluorescence (Fnorm), which is defined as F1/F0. […] The sPAH Kd was determined for 3 independent experiments.

[2] = Cytotoxicity assay (neutral red), WM9R cells; format: cell-based; details: human, WM9R melanoma cells (vemurafenib-resistant); read-out: sPAH-IC50 (cytotoxicity of sPAH alone)
Protocol: (§1) Human melanoma cell lines A375 and MeWo were purchased from ATCC, and cultured in DMEM medium supplemented with 10% fetal bovine serum and penicillin/streptomycin (Invitrogen) at 37 °C in a 5% CO2/95% water-saturated air atmosphere. Melanoma cell lines SKMEL 28, SKMEL V3, WM9S, and WM9R were provided by Robert Ballotti (C3M, Nice, France). MeWo-dxrR cells were obtained by adding increasing concentrations of doxorubicin, up to 0.2 µM, in the culture medium over 6 months. These cells were grown in medium supplemented with 0.2 µM dxr. WM9R cells were obtained by adding increasing concentrations of vemurafenib, up to 5 µM, in the culture medium over 6 months. These cells were grown in medium supplemented with 5 µM vemurafenib. HEK cells were grown in 75 mm tissue culture dishes (Falcon, Franklin Lakes, NJ, USA) in Dulbecco’s modified Eagle’s medium (Gibco, Life Technologies, Saint Aubin, France) supplemented with 10% fetal calf serum (Hyclone, Thermo Fisher Scientific GMBH, Ulm, Germany) and 1% penicillin/streptomycin (Gibco, Life Technologies, Saint Aubin, France) in a humidified incubator at 37 °C (5% CO2).
(§2) Cells were seeded in 96-well plates in triplicate and grown in medium to achieve 70 to 80% confluence. […] Measurements were made in microplate readers (Multiskan Go Microplate Spectrophotometer from Thermo Scientific).

[3] = tested on: WM9R cells; assay: Cytotoxicity assay (neutral red), WM9R cells; format: cell-based; details: WM9R; sPAH 20 µM; 24 h
Protocol: as §1, §2

T1 sequence (Q99835 28-787): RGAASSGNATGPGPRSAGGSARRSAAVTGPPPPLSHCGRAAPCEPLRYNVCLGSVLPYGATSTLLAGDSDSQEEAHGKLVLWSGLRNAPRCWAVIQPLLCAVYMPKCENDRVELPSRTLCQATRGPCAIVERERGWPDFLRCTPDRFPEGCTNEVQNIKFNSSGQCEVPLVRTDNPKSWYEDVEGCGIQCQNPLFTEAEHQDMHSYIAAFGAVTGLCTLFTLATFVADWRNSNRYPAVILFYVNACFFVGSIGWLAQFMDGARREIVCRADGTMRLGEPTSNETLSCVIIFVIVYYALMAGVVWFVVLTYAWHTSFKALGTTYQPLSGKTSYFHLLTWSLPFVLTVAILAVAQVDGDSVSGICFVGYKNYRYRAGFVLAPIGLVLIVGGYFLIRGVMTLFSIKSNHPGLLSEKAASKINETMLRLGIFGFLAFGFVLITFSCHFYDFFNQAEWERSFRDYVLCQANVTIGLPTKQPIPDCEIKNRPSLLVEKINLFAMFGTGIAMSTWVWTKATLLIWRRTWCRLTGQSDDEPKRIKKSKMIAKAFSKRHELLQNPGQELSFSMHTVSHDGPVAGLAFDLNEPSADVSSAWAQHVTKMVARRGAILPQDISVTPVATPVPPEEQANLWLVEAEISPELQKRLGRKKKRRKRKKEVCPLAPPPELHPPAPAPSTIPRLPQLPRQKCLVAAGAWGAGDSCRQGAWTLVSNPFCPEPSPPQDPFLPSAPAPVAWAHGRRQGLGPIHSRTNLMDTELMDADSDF

In the case of `COc1cc(C)c(CC/C(C)=C/Cc2cc(O)ccc2O)c(C)c1C` [sPAH, Panicein A hydroquinone], the “binding to membranes from yeast expressing Smoothened” value [1] is reported as “does not bind”, the IC50 [2] is reported as 41 ± 6.2 µM and the “change of the IC50 of vemurafenib in the presence of sPAH” value [3] is reported as “decrease by a factor of ten”.
